Tests used:
[1] = Absorbance in 1,4-dioxane-water mixtures (D50, spirolactone-zwitterion equilibrium); assay type: physicochemical; conditions: 1,4-Dioxane-Water with constant 0.3% SDS additive; dielectric constant at which absorbance is halved
Experimental: The D50 values indicated herein are determined by measuring the respective absorbance of a sample (dye isomer or derivative or conjugate thereof), in varied water-1,4-dioxane mixtures with known dielectric constants according to an established method (e.g. Åkerlöf G, Short AO. J Am Chem Soc 1936, 58(7): 1241-1243). D50 is commonly used as numeric value for the evaluation of the equilibrium changes and represents a dielectric constant at which absorbance is halved (Butkevich A. N.; Mitronova G. Y.; Sidenstein. S. C.; Klocke J. L.; Kamin D.; Meineke D. N. H.; D'Este E.; Kraemer P. T.; Danzl J. G.; Belov V. N.; Hell S. W., Angew. Chem. Int. Ed. 2016, 55, 3290-3294).
The D50 values were calculated using the following equation:
(§1) where A0—absorbance at λmax at εr=0, λmax—the highest reached absorbance at λmax, d—dielectric constant of 1,4-dioxane-water mixture at a given point, Hill—Hill slope coefficient determining the steepness of a dose-response curve, D50—corresponds to d value that provokes half of the absorbance amplitude (λmax−A0).
Measurements of the absorbance changes in 1,4-dioxane-water mixtures were performed by pipetting 2 μL stock solutions of dyes or probes in DMSO into a 96 glass bottom well plate (11 wells per sample) made from propylene (Corning 3364). To the wells going from right to left 300 μL of 1,4-dioxane-water mixtures containing 100%, 90%, 80%, 70%, 60%, 50%, 40%, 30%, 20%, 10% or 0% 1,4-dioxane was added (if needed, mixtures with 0.3% SDS are used, with an exception in 100% dioxane due to solubility issues). After incubation for 1 hour at room temperature, absorption of solutions in each well was recorded from 320 nm to 850 nm with wavelength step size of 1 nm on a multiwell plate reader Spark® 20M (Tecan). The background absorption of the glass bottom plate was measured in wells containing only 1,4-dioxane-water mixture with similar amount of DMSO and subtracted from the spectra of the samples. […]
as §1, with “λmax.” for “λmax,”
The ability of the fluorophores to switch between spirolactone and zwitterion states can be characterized by measuring the absorbance in water-1,4-dioxane mixtures with known dielectric constant (Åkerlöf G, Short A O. J Am Chem Soc 1936, 58(7): 1241-1243). D50 is commonly used as numeric value for the evaluation of the equilibrium changes and represents a dielectric constant at which absorbance is halved.

[2] = test system: tubulin; assay: Wide-field fluorescence microscopy of living primary fibroblasts stained with tubulin probes; assay type: cell-based, human
Experimental: Human primary dermal fibroblasts and HeLa cells were cultured in high-glucose DMEM (Life Technologies, Cat. No. 31053-028) supplemented with GlutaMAX-1 (Life Technologies, Cat. No. 35050-038) and 10% fetal bovine serum (FBS, Life Technologies, Cat. No. 10270-106) in a humidified 5% CO2 incubator at 37° C. The cells were split every 3-4 days or at confluence. Cells were seeded in glass bottom 12-well plates (MatTek Corporation, Cat. No. P12G-1.0-14-F).
Cells were stained with the fluorescent probes in DMEM (Thermo Fisher Scientific, Cat. No. 31053-028) supplemented with 10% FBS (Thermo Fisher Scientific, Cat. No. 10082139) at 37° C. and 5% CO2. […]
Actin/tubulin cytosolic signal was estimated using CellProfiler v.3.1.8. […] The background was subtracted from the original probe channel, and actin/tubulin staining was measured as mean pixel intensity per object in background-corrected probe channel. […]
As mentioned above, FIG. 3. illustrates the tubulin labelling of mammalian cells: a, structures of the tubulin probes. b, Wide-field fluorescence microscopy of living primary fibroblasts stained 100 nM TMR-LTX isomers for 1 h at 37° C. […] Hoechst staining is shown in cyan and all tubulin probes were shown in magenta. c, Quantification of fluorescence signal in the cytoplasm of living cells stained with tubulin probes. […]

[3] = test system: HeLa cells; assay: Cell cycle analysis by imaging flow cytometry and EC50 determination (subG1 cells, cytotoxicity of tubulin probes); assay type: cell-based; conditions: 24 h incubation at 37° C. in growth media; compared with parent compound larotaxel
Experimental: HeLa cells were grown in 6-well plates (^˜250.000 cells per well) for 24 h in the presence of the fluorescent probe in variable concentrations. The probes were dissolved in DMSO at 500-2000-fold stock concentration and added to the media of cultured cells at 500-2000-fold dilution accordingly. In parallel, the appropriate DMSO control samples were prepared by adding corresponding amount of DMSO volume to the separate well. Cells were processed according to the NucleoCounter® NC-3000™ two-step cell cycle analysis protocol for cells attached to T-flasks, cell culture plates or micro-carriers. […] Cells were counted on a NucleoCounter® NC-3000™ in NC-Slide A2™ slides (Chemometec, Cat. No. 942-0001) loaded with ˜30 μl of each of the cell suspensions into the chambers of the slide. Each time, ^˜10.000 cells in total were measured, and the obtained cell cycle histograms were analysed with ChemoMetec NucleoView NC-3000 software, version 2.1.25.8. […] The EC50 values were determined by plotting the percentage of cells in subG1 phase and fitting the curve in GraphPad Prism 6 to the following function: […]
As mentioned above, FIG. 3. illustrates the tubulin labelling of mammalian cells: a, structures of the tubulin probes. b, Wide-field fluorescence microscopy of living primary fibroblasts stained 100 nM TMR-LTX isomers for 1 h at 37° C. […]

Row | Structure (SMILES) | D50 [1] | membrane permeability ([2]; living cells, 100 nM probe, 1 h at 37° C., compared to 5′- and 6′-isomers) | tubulin labelling specificity ([2]; mammalian cells, simple incubation with probe) | EC50, accumulation of subG1 phase cells (cytotoxicity) [3]
1 | CNc1ccc2c(c1)C(C)(C)c1cc(NC)ccc1C21OC(=O)c2c(C(=O)NCCCCCCCC(=O)N[C@@H](c3ccccc3)[C@@H](O)C(=O)O[C@H]3C[C@@]4(O)[C@@H](OC(=O)c5ccccc5)[C@@H]5[C@]6(OC(C)=O)CO[C@@H]6C[C@@H]6C[C@@]65C(=O)[C@H](OC(C)=O)C(=C3C)C4(C)C)cccc21 [580CP-LTX 4′-isomer] | 62 ± 1 |  |  | 
2 | CO[C@H]1C(=O)[C@]2(C)[C@@H](OC)C[C@H]3OC[C@@]3(OC(C)=O)[C@H]2[C@H](OC(=O)c2ccccc2)[C@]2(O)C[C@H](OC(=O)[C@H](O)[C@@H](NC(=O)CCCCCCCNC(=O)c3cccc4c3C(=O)OC43c4ccc(N(C)C)cc4C(C)(C)c4cc(N(C)C)ccc43)c3ccccc3)C(C)=C1C2(C)C [610CP-CTX 4′-isomer] | 65 ± 2 |  |  | 
3 | CO[C@H]1C(=O)[C@]2(C)[C@@H](OC)C[C@H]3OC[C@@]3(OC(C)=O)[C@H]2[C@H](OC(=O)c2ccccc2)[C@]2(O)C[C@H](OC(=O)[C@H](O)[C@@H](NC(=O)CCCCCCCNC(=O)c3cccc4c3C(=O)OC43c4ccc(N(C)C)cc4[Si](C)(C)c4cc(N(C)C)ccc43)c3ccccc3)C(C)=C1C2(C)C [SiR-CTX 4′-isomer] | >80 |  |  | 
4 | CC(=O)O[C@H]1C(=O)[C@]23C[C@H]2C[C@H]2OC[C@@]2(OC(C)=O)[C@H]3[C@H](OC(=O)c2ccccc2)[C@]2(O)C[C@H](OC(=O)[C@H](O)[C@@H](NC(=O)CCCCCCCNC(=O)c3cccc4c3C(=O)OC43c4ccc(N(C)C)cc4Oc4cc(N(C)C)ccc43)c3ccccc3)C(C)=C1C2(C)C [TMR-LTX 4′-isomer] | 26.5 ± 0.5 | excellent membrane permeability | highly specific tubulin labelling | almost as efficiently as parent compound
